# Activity calls are given as the source filed them.
# Key:
# [1] = mitochondrial function rescue without frataxin homolog – Friedreich's ataxia, plus single-dose screen, dose response (AID 1465); type: functional;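 further: yeast depleted of Yfh1p frataxin homolog grown on glycerol needing respiration; WST-1 tetrazolium dye reduction as measure of cellular dehydrogenase metabolic activity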
# Troponin, cardiac muscle = Troponin, cardiac muscle (Homo sapiens, UniProt P19429+P45379+P63316); assay: Fluorescence-based biochemical high throughput dose response assay for activators of the calcium sensitivity of cardiac Regulated Thin Filaments (RTF). [Related pubchem assays (depositor defined):AID493008, AID493018, AID504382, AID504383]; type: protein-complex assay
# [2] = target: NAD-dependent protein deacylase sirtuin-5, mitochondrial (Homo sapiens, UniProt Q9NXA8); assay: sirtuin-5 deacylation blockers, concentration series – biochemical, fluorescence imaging, cherry-pick, set 5, dose response (AID 720591);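 further: desuccinylation of succinyl peptide AMC substrate read as fluorescence after trypsin release; potency of inhibitors that lower fluorescence and may act on trypsin instead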
# NAD-dependent protein deacylase sirtuin-5, mitochondrial, sequence (Q9NXA8 whole entry, the tested form may be a part): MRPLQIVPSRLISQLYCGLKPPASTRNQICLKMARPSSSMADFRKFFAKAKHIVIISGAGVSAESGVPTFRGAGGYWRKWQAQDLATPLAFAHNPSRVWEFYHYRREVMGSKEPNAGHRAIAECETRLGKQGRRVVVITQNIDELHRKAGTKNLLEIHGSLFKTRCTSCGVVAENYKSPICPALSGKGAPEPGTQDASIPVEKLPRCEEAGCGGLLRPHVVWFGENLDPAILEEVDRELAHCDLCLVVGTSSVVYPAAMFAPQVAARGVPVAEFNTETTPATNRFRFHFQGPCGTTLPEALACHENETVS
# [3] = target: T1, Oxysterols receptor LXR-beta (Homo sapiens, UniProt P55055); type: functional, cell-based;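 further: Cell-based luminescence dose-response assay of agonist activity at LXR, run as a confirmatory counterscreen to a daf-12 agonist screen; HEK293 cells with Gal4-LXR fusion and GAL4-driven luciferase reporter; agonist potency from rising luciferase signal of a Gal4-LXR reporter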
# T1 sequence (P55055 whole entry): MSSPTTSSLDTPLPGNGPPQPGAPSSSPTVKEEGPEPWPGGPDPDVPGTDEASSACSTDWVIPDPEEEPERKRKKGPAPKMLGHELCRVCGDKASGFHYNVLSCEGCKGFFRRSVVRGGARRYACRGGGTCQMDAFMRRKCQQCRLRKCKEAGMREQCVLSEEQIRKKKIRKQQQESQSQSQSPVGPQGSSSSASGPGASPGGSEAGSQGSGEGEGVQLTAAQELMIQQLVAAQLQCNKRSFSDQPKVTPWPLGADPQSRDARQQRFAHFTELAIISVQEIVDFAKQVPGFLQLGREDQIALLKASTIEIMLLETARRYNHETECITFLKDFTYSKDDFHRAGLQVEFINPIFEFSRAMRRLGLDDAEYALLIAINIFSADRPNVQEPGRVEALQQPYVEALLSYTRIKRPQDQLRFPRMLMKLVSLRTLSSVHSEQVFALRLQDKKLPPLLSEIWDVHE
# Caspase-3 = target: T2, Caspase-3 (Homo sapiens, UniProt P42574); type: functional;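 further: Dose-response selectivity test against caspase-3 for candidate inhibitors of sentrin-specific proteases (SENPs)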
# T2 sequence (P42574 whole entry): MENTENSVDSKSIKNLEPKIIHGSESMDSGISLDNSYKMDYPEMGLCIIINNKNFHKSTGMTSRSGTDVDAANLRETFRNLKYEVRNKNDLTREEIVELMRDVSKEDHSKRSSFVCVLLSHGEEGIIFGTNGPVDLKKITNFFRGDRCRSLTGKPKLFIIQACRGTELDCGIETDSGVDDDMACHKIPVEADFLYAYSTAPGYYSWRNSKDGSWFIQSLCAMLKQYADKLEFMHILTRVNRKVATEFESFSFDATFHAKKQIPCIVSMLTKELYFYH
# [4] = target: T3, Sentrin-specific protease 8 (Homo sapiens, UniProt Q96LD8); type: functional;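 further: luminescence read-out of SENP8 inhibition, dose-response confirmation following an ultra-high-throughput screen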
# T3 sequence (Q96LD8 whole entry): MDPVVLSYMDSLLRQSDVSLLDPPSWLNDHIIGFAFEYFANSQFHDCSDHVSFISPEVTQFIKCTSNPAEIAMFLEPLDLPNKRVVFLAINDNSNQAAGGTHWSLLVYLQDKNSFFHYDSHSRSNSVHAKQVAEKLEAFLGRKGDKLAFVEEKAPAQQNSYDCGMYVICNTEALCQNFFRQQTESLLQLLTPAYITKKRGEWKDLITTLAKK
# [5] = target: T4, Sentrin-specific protease 7 (Homo sapiens, UniProt Q9BQF6); type: functional;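 further: Luminescence-based dose-response confirmation of ultra-high-throughput screening hits, measuring inhibition of SENP7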
# T4 sequence (Q9BQF6 whole entry): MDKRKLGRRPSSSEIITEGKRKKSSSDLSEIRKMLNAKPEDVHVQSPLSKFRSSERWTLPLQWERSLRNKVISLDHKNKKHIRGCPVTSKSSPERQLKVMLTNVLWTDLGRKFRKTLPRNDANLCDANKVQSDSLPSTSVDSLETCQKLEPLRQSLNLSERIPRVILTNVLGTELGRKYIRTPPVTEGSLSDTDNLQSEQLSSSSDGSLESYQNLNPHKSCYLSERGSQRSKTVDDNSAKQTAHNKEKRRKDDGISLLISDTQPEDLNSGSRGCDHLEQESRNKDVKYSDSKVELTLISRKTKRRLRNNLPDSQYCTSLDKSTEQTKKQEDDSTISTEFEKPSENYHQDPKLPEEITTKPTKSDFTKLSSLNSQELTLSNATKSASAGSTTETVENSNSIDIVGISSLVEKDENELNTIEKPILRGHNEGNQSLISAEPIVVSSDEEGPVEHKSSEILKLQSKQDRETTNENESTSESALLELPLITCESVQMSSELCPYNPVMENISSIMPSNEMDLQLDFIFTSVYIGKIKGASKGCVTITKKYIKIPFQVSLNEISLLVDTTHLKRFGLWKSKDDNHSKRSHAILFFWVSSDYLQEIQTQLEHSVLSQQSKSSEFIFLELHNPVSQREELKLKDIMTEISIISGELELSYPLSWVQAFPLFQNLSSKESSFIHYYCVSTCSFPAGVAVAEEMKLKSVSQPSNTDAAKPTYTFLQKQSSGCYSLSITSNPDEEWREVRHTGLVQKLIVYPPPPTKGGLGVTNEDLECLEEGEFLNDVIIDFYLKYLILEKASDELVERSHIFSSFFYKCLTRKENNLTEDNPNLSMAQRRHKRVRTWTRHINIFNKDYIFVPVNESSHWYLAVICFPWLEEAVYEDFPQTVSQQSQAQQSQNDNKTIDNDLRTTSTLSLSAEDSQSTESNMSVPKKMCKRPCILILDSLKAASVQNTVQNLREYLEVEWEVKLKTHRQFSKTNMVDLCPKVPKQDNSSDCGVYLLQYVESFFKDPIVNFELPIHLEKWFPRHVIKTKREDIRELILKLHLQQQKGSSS
# [6] = target: T5, Sentrin-specific protease 6 (Homo sapiens, UniProt Q9GZR1); type: functional;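 further: Luminescence-based dose-response confirmatory assay of SENP6 inhibition, following up an ultra-high-throughput screen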
# T5 sequence (Q9GZR1 whole entry): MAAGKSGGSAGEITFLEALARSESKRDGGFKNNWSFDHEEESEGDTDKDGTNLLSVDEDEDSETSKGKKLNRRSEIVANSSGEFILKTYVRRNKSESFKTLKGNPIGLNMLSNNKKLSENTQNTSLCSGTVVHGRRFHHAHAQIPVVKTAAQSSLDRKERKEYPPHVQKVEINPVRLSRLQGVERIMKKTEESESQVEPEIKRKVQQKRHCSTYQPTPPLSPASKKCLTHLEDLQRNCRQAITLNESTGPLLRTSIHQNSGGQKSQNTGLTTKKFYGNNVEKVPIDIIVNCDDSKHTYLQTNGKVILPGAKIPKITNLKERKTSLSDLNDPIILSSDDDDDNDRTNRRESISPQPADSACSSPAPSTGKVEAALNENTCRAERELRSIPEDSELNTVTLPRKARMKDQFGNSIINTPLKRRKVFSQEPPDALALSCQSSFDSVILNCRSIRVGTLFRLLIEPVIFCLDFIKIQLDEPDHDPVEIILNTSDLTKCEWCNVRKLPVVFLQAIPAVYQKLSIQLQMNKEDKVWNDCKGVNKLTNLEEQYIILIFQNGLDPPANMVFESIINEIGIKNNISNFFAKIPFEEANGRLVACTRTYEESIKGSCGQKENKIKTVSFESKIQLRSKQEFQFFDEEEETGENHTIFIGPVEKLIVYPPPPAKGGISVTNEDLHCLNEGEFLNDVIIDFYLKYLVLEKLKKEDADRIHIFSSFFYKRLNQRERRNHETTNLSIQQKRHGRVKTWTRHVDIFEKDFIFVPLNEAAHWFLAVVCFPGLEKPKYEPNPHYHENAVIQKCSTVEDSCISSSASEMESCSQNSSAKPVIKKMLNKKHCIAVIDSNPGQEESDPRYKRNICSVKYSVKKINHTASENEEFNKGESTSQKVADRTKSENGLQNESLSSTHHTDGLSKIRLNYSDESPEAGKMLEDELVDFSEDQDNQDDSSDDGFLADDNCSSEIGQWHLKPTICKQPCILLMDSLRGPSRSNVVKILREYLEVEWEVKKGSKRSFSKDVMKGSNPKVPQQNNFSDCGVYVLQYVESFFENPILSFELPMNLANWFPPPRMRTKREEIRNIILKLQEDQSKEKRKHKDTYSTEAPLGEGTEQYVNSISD
# [7] = IC50 of Artemis nuclease activity blockers – biochemical, fluorescence intensity, dose response (AID 720701); type: functional;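 further: Artemis endonuclease enzyme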
# [8] = Luminescence Cell-Based Dose Confirmation to Identify Activators of 5'UTR Stem-Loop Driven Alpha-Synuclein mRNA Translation in H4 Neuroglioblastoma Cells. [Related pubchem assays: 1829 (Project Summary), 1814 (Primary HTS)]; type: functional
# [9] = Luminescence Cell-Based Dose Response to Identify Activators of Luciferase Translation or Activity in H4-C Neuroglioblastoma Cells. [Related pubchem assays: 1829 (Project Summary), 1814 (Primary HTS)]; type: functional
# [10] = Luminescence Cell-Based Dose Response HTS to Identify Activators of Luciferase Translation or Activity in H4 […] Cells. [Related pubchem assays: 1829 (Project Summary), 1814 (Primary HTS)]; type: functional
# [11] = Luminescence Cell-Based Dose Response to Identify Activators of 5'UTR Stem-Loop Driven Prion Protein mRNA Translation in H4-C Neuroglioblastoma Cells. [Related pubchem assays: 1829 (Project Summary), 1814 (Primary HTS)]; type: functional
# [12] = reduced cellular PGC1a acetyl-lysine signal – cell-based, cherry-picked samples, dose response (AID 720514); type: functional;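 further: potency may reflect raised or lowered acetylation signal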
# [13] = RKO cell viability reduction, dose response, CellTiter-Glo luminescence (AID 1117322); type: functional
# [14] = Reduced DLD-1 viability, concentration-response, CellTiter-Glo luminescence (AID 1117352); type: functional
# [15] = CellTiter-Glo luminescence survival assay, SW480 colon tumor line, concentration-response curve, half-maximal inhibitory concentration (AID 1117338); type: functional
# [16] = cytotoxicity toward HCT116 cells – cell-based, CellTiter-Glo luminescence, IC50, dose response (AID 1117332); type: functional; details: HCT-116
# [17] = cytotoxicity toward HT-29 cells – cell-based, CellTiter-Glo luminescence, IC50, dose response (AID 1117330); type: functional
# [18] = SNU-C1 cell viability reduction, dose response, CellTiter-Glo luminescence (AID 1117323); type: functional, cell-based
# [19] = HCT116 cell viability decrease, GSK3B pretreatment – CellTiter-Glo, IC50, dose response (AID 1117339); type: functional; details: HCT-116
# [20] = cytotoxicity toward Colo320 cells – cell-based, CellTiter-Glo luminescence, IC50, dose response (AID 1117334); type: functional; details: COLO 320
smiles,measurement,setting,value
CCCN1C=CC(=CC=C(C#N)C#N)C=C1,EC50,[1],> 100 µM (active)
same,EC50,"Troponin, cardiac muscle",7.62 µM (active)
O=C(COc1ccc2c(c1)OCO2)Nc1ccc(Cl)cn1,AC50,[2],> 30 µM (inactive)
Nc1nc(-c2ccccc2)nc2sc3c(c12)CCCC3,EC50,[3],> 67.5 µM (inactive)
same,IC50,Caspase-3,19 µM (active)
same,IC50,[4],5.99 µM (active)
same,EC50,cells,> 67.5 µM (inactive)
same,IC50,[5],3.08 µM (active)
same,IC50,[6],10 µM (active)
COc1ccc(C2CC(c3ccc(Cl)cc3)Nc3nc(NC(=O)c4ccco4)nn32)cc1 (centres undefined),IC50,[7],11.8 µM (active)
N#C/C(=C\c1ccc(N2CCOCC2)o1)C(=O)NCCc1ccccc1,EC50,[1],> 100 µM (active)
COc1ccc(C(=O)/N=c2\sc3c(C)ccc(OC)c3n2C)cc1OC,EC50,[8],0.256 µM (active)
same,EC50,[9],0.405 µM (active)
same,EC50,[10],< 0.1 µM (inconclusive)
same,EC50,[11],0.484 µM (active)
N#C[C@H]1[C@H](c2ccc(C#CC3CCCC3)cc2)[C@H](CO)N1C(=O)Cc1ccccn1,AC50,[12],20.4 µM (active)
CCOC(=O)[C@H](CCc1ccccc1)N[C@@H](C)C(=O)N1C(=O)N(C)C[C@H]1C(=O)O,IC50,[13],> 20 µM (inactive)
same,IC50,[14],> 20 µM (inactive)
same,IC50,[15],> 20 µM (inactive)
same,IC50,[16],> 20 µM (inactive)
same,IC50,[17],> 20 µM (inactive)
same,IC50,[18],> 20 µM (inactive)
same,IC50,[19],> 20 µM (inactive)
same,IC50,[20],> 20 µM (inactive)

# Reference: ChEMBL document CHEMBL1201862, “PubChem BioAssay data set” (2004)
